Data set [1] has as its target RBD domain of the SARS-CoV-2 S protein (Severe acute respiratory syndrome coronavirus 2, UniProt P0DTC2). Description: biochemical. The format is binding. The following applies: KD Tmeasur. 25°C.
The subject of a further data set is Calu-3 cells. Kind of data set: MTS cell viability assay, Calu-3. The format is cell-based, human. Particulars: Calu-3, 72 h exposure, concentrations up to 1 mM. Here is the method: (§1) BEAS 2B (cat. no.: ATCC® CRL-9609™) and Calu-3 (cat. no.: ATCC HTB-55™) cell lines were purchased from the American Type Culture Collection (ATCC, United States). BEAS 2B cells were maintained in Bronchial Epithelial Cell Growth Medium (BEGM) containing Bronchial Epithelial Basal Medium (BEBM cat. no.: CC-3171) supplemented with growth factors (SingleQuotsTM Supplement Pack cat. no.: CC-4175), both from Lonza (Switzerland). […]
(§2) After 72 h of incubation at 37°C, the combined solution of MTS (Promega, United States, cat. no.: G1112) and an electron coupling reagent, phenazine methosulfate (PMS, Sigma-Aldrich, Merck, Germany, cat. no.: P9625) was added to the cell culture media, to a final concentration of 333 μg/ml MTS and 25 μM PMS. Cells were then incubated for 3 h at 37°C in a humidified, 5% CO2 atmosphere, and the absorbance at 490 nm wavelength was measured using a spectrophotometer (Synergy HT Microplate Reader, BioTek, United States). The absorbance values recorded for cells exposed to peptide were compared to values measured for untreated control cells, regarded as 100% cell viability.
(§3) The amount of formazan product measured spectrophotometrically is directly proportional to the number of viable cells ([Berridge et al., 2005]).
For orientation: Formazan colour is commonly taken as a measure of viable cells.

Another data set concerns BEAS 2B cells. Kind of data set: MTS cell viability assay, BEAS 2B. The format is cell-based, human. The following applies: 72 h exposure, concentrations up to 1 mM. Here is the method:
as §1, §2, §3

In data set [2] the test system is SARS-CoV-2 S protein - hACE2 interaction. Particulars: ref Odolczyk et al., 2021; read-out: IC50 inhibition of virus-host protein-protein interaction; cited from earlier work.

No end group written: not given here.

Consider `NC(=O)C[C@H](NC(=O)CNC(=O)[C@H](Cc1ccc(O)cc1)NC(=O)[C@@H](N)CC(=O)O)C(=O)N[C@@H](Cc1c[nH]cn1)C(=O)N[C@@H](CCC(=O)O)C(=O)O` [J3, DYGNHE], for which, in data set [1], the dissociation constant Kd (in general, the concentration at which binding is half-saturated) was 0.05 ± 0.01 µM. For the same compound, the “Cell viability (MTS)” value in the data set with Calu-3 cells and in the data set with BEAS 2B cells was “not affected” each time. For `NCCCC[C@H](NC(=O)[C@@H](N)CC(=O)O)C(=O)NCC(=O)N[C@@H](CC(N)=O)C(=O)N[C@@H](Cc1c[nH]cn1)C(=O)N[C@@H](CCC(=O)O)C(=O)O` [pep1d, DKGNHE], the IC50 – broadly, the midpoint of a concentration-inhibition curve – in data set [2] was 3300 µM. For LYGNYE [J3.5, LYGNYE], in data set [1], the equilibrium dissociation constant (Kd) was > 1 µM. On the same count and under the same terms, the figure for MYGNYE [J3.4, MYGNYE] is > 10 µM.

The values above are taken from paper PMC9555309, “Improvement of native structure-based peptides as efficient inhibitors of protein-protein interactions of SARS-CoV-2 spike protein and human ACE2” (Frontiers in Molecular Biosciences, 2022).
